Values quoted from earlier work, collected in patent US9873698B2, “Spirocycles as inhibitors of 11-beta hydroxyl steroid dehydrogenase type 1” (Incyte Corporation, priority 2007, dated 2018).

Target: T1, 11βHSD1 (Homo sapiens, UniProt P28845)
T1 construct: host or cells: healthy volunteers, eye (in vivo)
Details: healthy volunteers, after seven days of carbenoxolone treatment

T1 sequence (P28845 whole entry): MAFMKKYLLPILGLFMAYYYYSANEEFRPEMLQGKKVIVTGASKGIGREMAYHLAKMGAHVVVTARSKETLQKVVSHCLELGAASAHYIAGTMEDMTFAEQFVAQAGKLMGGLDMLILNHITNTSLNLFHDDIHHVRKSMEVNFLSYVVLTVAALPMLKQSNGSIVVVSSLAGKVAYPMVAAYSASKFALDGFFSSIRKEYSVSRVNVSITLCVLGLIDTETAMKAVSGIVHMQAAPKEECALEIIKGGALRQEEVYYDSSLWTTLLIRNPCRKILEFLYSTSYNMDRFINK

CC1(C)[C@@H](OC(=O)CCC(=O)O)CC[C@]2(C)[C@H]3C(=O)C=C4[C@@H]5C[C@@](C)(C(=O)O)CC[C@]5(C)CC[C@@]4(C)[C@]3(C)CC[C@@H]12 [carbenoxolone]
IOP reduced by: 18%
